Assay results from US20130078718A1, “CONVERSION OF VASCULAR ENDOTHELIAL CELLS INTO MULTIPOTENT STEM-LIKE CELLS” (PRESIDENT AND FELLOWS OF HARVARD COLLEGE, priority 2010, published 2013).
“Also recorded” adds a separate entry of the source.

How the values were obtained:
[1] = tested on: Human umbilical vein endothelial cells (HUVECs) and human cutaneous microvascular endothelial cells (HCMECs); assay: Endothelial-mesenchymal transition (EndMT) in endothelial cells: morphology, marker expression by immunoblotting, flow cytometry, real-time PCR, ELISA; format: cell-based; conditions: for FSP-1, α-SMA, and N-cadherin levels (immunoblotting) / VE-cadherin, CD31, and vWF levels (immunoblotting): 10 ng ml−1, 48 h; for EndMT-associated transcription factors Snail, Slug, ZEB-1, SIP-1, LEF-1, Twist (ELISA): 10 ng ml−1, compared to control cells; for FSP-1 and α-SMA levels (immunoblotting) / TIE-2 expression levels (immunoblotting) / VE-cadherin levels (immunoblotting) / co-staining for endothelial marker TIE2 and mesenchymal marker FSP-1 (fluorescence microscopy or flow cytometry) / expression of genes associated with EndMT (FSP-1, α-SMA, N-cadherin, fibronectin, Snail, Slug, ZEB-1, SIP-1, LEF-1, Twist), real-time quantitative PCR / cell morphology (DIC imaging): 10 ng/mL, 48 hours; for expression of genes associated with EndMT (FSP-1, α-SMA, N-cadherin, fibronectin, Snail, Slug, ZEB-1, SIP-1, LEF-1, Twist), real-time quantitative PCR: compared to control cells; for cell morphology (DIC imaging): serum free medium
Procedure: Human umbilical vein endothelial cells (HUVEC) and human cutaneous microvascular endothelial cells (HCMEC) were provided by J. Bischoff (Children's Hospital Boston) and isolated as previously described^35. […] Cells were grown in culture using EGM-2 medium (Cambrex), containing 10% FBS and 1% Penicillin/Streptomycin, followed by human endothelial serum free medium (Gibco) 24 hours prior to all experimental conditions. Bone marrow derived mesenchymal stem cells (ScienCell Research Laboratories) were grown in mesenchymal stem cell medium (ScienCell Research Laboratories). Human corneal fibroblasts, from a stock initially provided by E. Hay (Harvard Medical School), were grown in RPMI medium, containing 10% FBS and 1% Penicillin/Streptomycin. Primary human osteoblasts, chondrocytes, and adipocytes and their respective growth media were obtained from Cell Applications Inc. Recombinant TGF-β2 and BMP4 proteins (R&D Systems) were added to the serum free culture medium for all relevant experiments at a concentration of 10 ng/mL. Cells were treated for 15 minutes to assess ALK2 phosphorylation, 1 hour to measure Smad5 phosphorylation, or 48 hours to induce EndMT. All experiments for this study were performed at minimum in triplicate.
Immunoassays were performed using the following antibodies at concentrations (and using protocols) recommended by the respective manufacturers: FSP-1 (H00006275-M01; Stressgen), ALK2 (sc-5671), Phospho-tyrosine (sc-7020), VE-cadherin (sc-6458), TIE2 (sc-324, sc-9026), STRO-1 (sc-47733), CD44 (sc-71220), CD90 (sc-9163), Osteocalcin (sc-74495, sc-23790), SOX9 (sc-20095), COL2A1 (sc-59958, sc-52658), PPARγ2 (sc-22022; Santa Cruz Biotechnology), vWF (ab68545; Abcam); His (A00174; GenScript); α-SMA (A5228), β-actin (A1978; Sigma-Aldrich). Samples were run with Criterion precast SDS-PAGE Gels (Bio-Rad). HRP-conjugated IgG TrueBlot reagents (18-8814, 18-8816, 18-8817; eBioscience) were used at a dilution of 1:1000. TrueBlot IgG beads (eBioscience) were used for immunoprecipitation experiments. Alexa Fluor secondary antibodies (Invitrogen) were used at a dilution of 1:200. Images were acquired using a Nikon 80i fluorescence microscope.
Endothelial cells were stained in suspension using antibodies against TIE2, FSP-1, STRO-1, and His (described above) and the protocols provided by their respective manufacturer. Flow cytometry was performed at the Harvard Medical School, Department of Pathology flow cytometry core facility using a FACSDCalibur (BD Biosciences) cell sorter isolating 30,000 cells per sample.
RNA extractions were performed using the RNeasy Mini kit (Qiagen) and protocol. RNA samples were submitted to a core facility (Biopolymers Facility, Department of Genetics, Harvard Medical School) where real-time PCR experiments were conducted using the Syber Green PCR system (ABI) on an ABI 7500 cycler, with 40 cycles per sample. Cycling temperatures were as follows: denaturing 95° C.; annealing 60° C.; extension, 70° C. The following primers (Integrated DNA Technologies) were used: […]
Human umbilical vein endothelial cells (HUVEC) and human cutaneous microvascular endothelial cells (HCMEC) isolated as previously described (35). […] Cells were grown in culture using EGM-2 medium (Cambrex), containing 10% FBS and 1% Penicillin/Streptomycin, followed by human endothelial serum free medium (Gibco) 24 h prior to all experimental conditions.

[2] = tested on: Human umbilical vein endothelial cells (HUVECs) and human cutaneous microvascular endothelial cells (HCMECs); assay: as above; format: cell-based

| Substance | effect on EndMT (stimulation) [1] | FSP-1, α-SMA, and N-cadherin levels (immunoblotting) [1] | VE-cadherin, CD31, and vWF levels (immunoblotting) [1] | EndMT-associated transcription factors Snail, Slug, ZEB-1, SIP-1, LEF-1, Twist (ELISA) [1] | FSP-1 and α-SMA levels (immunoblotting) [1] | TIE-2 expression levels (immunoblotting) [1] | VE-cadherin levels (immunoblotting) [1] | co-staining for endothelial marker TIE2 and mesenchymal marker FSP-1 (fluorescence microscopy or flow cytometry) [1] | expression of genes associated with EndMT (FSP-1, α-SMA, N-cadherin, fibronectin, Snail, Slug, ZEB-1, SIP-1, LEF-1, Twist), real-time quantitative PCR [1] | cell morphology (DIC imaging) [1] | TIE2 levels after 96 h of treatment [2] | VE-cadherin, FSP-1, CD44, CD90 expression in clonal populations (multiplex ELISA) ([1]; three clonal populations of HUVEC and HCMEC, 48 h) |
| --- | --- | --- | --- | --- | --- | --- | --- | --- | --- | --- | --- | --- |
| BMP4: Recombinant BMP4 protein (R&D Systems), ALK2 activating ligand, used at 10 ng/mL | stimulators of EndMT; also recorded: stimulate EndMT | increased | decreased | much higher | increased | remained unchanged; also recorded: remain constant | significantly decreased | staining for both | much higher | distinct change from cobblestone-like endothelial cell morphology to fibroblast-like morphology | small decrease; also recorded: slight decrease | – |
| TGF-β2: Recombinant TGF-β2 protein (R&D Systems), ALK2 activating ligand, used at 10 ng/mL | stimulators of EndMT; also recorded: stimulate EndMT | increased | decreased | much higher | increased | remained unchanged; also recorded: remain constant | significantly decreased | staining for both | much higher | distinct change from cobblestone-like endothelial cell morphology to fibroblast-like morphology | small decrease; also recorded: slight decrease | decreased expression of VE-cadherin and increased expression of FSP-1, CD44, and CD90 |
